We go through four compounds from patent US7317007B2, “Benzothiazole derivatives with activity as adenosine receptor ligands” (Hoffmann-La Roche Inc., priority 2000, dated 2008).

In data set [1] the target is T1, human adenosine A2A receptor (Homo sapiens, UniProt P29274).
T1 construct: expressed in transfected cells; host or cells: CHO cells, Semliki Forest virus expression system; washed membrane pellet used
As to the kind of experiment: [3H]-SCH-58261 binding assay at the human adenosine A2A receptor. The conditions noted are these: read-out: pKi value (converted). The method, then:
Human Adenosine A2A Receptor
The human adenosine A2A receptor was recombinantly expressed in chinese hamster ovary (CHO) cells using the semliki forest virus expression system. Cells were harvested, washed twice by centrifugation, homogenised and again washed by centrifugation. The final washed membrane pellet was suspended in a Tris (50 mM) buffer containing 120 mM NaCl, 5 mM KCl, 2 mM CaCl2 and 10 mM MgCl2 (pH 7.4) (buffer A). The [^3H]-SCH-58261 (Dionisotti et al., 1997, Br J Pharmacol 121, 353; 1 nM) binding assay was carried out in 96-well plates in the presence of 2.5 μg of membrane protein, 0.5 mg of Ysi-poly-1-lysine SPA beads and 0.1 U adenosine deaminase in a final volume of 200 μl of buffer A. Non-specific binding was defined using xanthine amine congener (XAC; 2 μM). Compounds were tested at 10 concentrations from 10 μM-0.3 nM. All assays were conducted in duplicate and repeated at least two times. Assay plates were incubated for 1 hour at room temperature before centrifugation and then bound ligand determined using a Packard Topcount scintillation counter. IC50 values were calculated using a non-linear curve fitting program and Ki values calculated using the Cheng-Prussoff equation.

T1 sequence (P29274 whole entry): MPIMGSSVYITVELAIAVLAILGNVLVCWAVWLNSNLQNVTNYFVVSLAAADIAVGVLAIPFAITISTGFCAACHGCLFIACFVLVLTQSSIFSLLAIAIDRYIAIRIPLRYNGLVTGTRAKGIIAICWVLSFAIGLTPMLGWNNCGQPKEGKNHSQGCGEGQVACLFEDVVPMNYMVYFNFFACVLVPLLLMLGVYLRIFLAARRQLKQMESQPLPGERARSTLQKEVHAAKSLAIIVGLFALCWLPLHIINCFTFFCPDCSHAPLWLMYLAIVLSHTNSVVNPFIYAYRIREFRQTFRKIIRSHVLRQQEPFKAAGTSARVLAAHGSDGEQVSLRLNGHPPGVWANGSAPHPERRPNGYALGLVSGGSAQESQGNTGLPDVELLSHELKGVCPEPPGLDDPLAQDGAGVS

In general, melting point refers to the temperature, or range, at which the solid turns liquid. Take `COc1ccc(-c2csc(N3CCN(C)CC3)n2)c2sc(NC(=O)c3ccc(F)cc3)nc12` [Example 221, 4-Fluoro-N-{4-methoxy-7-[2-(4-methyl-piperazin-1-yl)-thiazol-4-yl]-benzothiazol-2-yl}-benzamide]: the melting point is 138 °C (dec.). In data set [1], the Ki was 2 nM.
For `COCCN(C)Cc1ccc(C(=O)Nc2nc3c(OC)ccc(-c4cccs4)c3s2)cc1` [Example 240, 4-{[(2-Methoxy-ethyl)-methyl-amino]-methyl}-N-(4-methoxy-7-thiophen-2-yl-benzothiazol-2-yl)-benzamide], in that order: 58 to 78 °C and 3.16 nM.
Regarding `COc1ccc(-c2ccc(C)s2)c2sc(NC(=O)N3CCC(O)CC3)nc12` [Example 266, 4-Hydroxy-piperidine-1-carboxylic acid [4-methoxy-7-(5-methyl-thiophen-2-yl)-benzothiazol-2-yl]-amide], the melting point is 197 to 204 °C (dec.).
On the same count and under the same terms, to `COc1ccc(-c2csc(C)n2)c2sc(NC(=O)N3CCN(C)CC3)nc12` [Example 267, 4-Methyl-piperazine-1-carboxylic acid [4-methoxy-7-(2-methyl-thiazol-4-yl)-benzothiazol-2-yl]-amide] belongs 179 to 181 °C.
